Measured values as given in EP0231622B1, “Inhibition of the 5-lipoxygenase pathway” (priority 1985, dated 1987).
Read-outs that look alike come from different tables or passages of the source. Marks after values point to notes of the source that are not given here.

Tests used:
[1] = test system: Arachidonic Acid-Induced Inflammation of the Mouse Ear; assay: Arachidonic acid-induced mouse ear inflammation; format: in vivo, Balb/c mice; details: for % Inhibition of Ear Swelling: Table 7A, NS = not significant
From the text: In the following Examples where mice were used, they were male Balb/c mice (20-28 g), and where rats were used, they were male Lewis rats (180-210 g). All mice and rats were obtained from Charles River Breeding Laboratories, Kingston, N.Y. Within a single experiment, mice and rats were sex and age matched.
The compounds of Formula (IA) were used either as the free base or in the appropriate salt form. Levamisole was used as the hydrochloride salt. The compounds were homogenized in 0.5% tragacanth. Compounds were administered by gavage at the indicated dose in a final volume of 10 ml/kg. Nordihydroguaiaretic acid (NDGA) was solubilized in dimethylacetamide and diluted with olive oil for subcutaneous administration.
Arachidonic acid in acetone (2 mg/20 ul) was applied to the inner surface of the left ear. The thickness of both ears was then measured with a dial micrometer one hour after treatment, and the data were expressed as the change in thickness (10⁻³ cm) between treated and untreated ears.
Test compounds were given orally in 0.5% tragacanth at the times indicated in the text prior to the topical application of arachidonic acid.
Parenteral administration of compound was accomplished by subcutaneous injection of solution as indicated.

5-LO = target: T1, 5-LO (Rattus norvegicus, UniProt P12527); assay: di-HETE production by RBL-1 high speed supernatant; format: biochemical; details: Table 9A; di-HETE production by RBL-1 high speed supernatant; read-out: 5-LO IC50
T1 construct: The activities of these enzymes in extracts of RBL-1 cells were assayed; host or cells: RBL-1 cells, disrupted by nitrogen cavitation; 10,000 x g or 100,000 x g supernatant
T1 sequence (P12527 1-673): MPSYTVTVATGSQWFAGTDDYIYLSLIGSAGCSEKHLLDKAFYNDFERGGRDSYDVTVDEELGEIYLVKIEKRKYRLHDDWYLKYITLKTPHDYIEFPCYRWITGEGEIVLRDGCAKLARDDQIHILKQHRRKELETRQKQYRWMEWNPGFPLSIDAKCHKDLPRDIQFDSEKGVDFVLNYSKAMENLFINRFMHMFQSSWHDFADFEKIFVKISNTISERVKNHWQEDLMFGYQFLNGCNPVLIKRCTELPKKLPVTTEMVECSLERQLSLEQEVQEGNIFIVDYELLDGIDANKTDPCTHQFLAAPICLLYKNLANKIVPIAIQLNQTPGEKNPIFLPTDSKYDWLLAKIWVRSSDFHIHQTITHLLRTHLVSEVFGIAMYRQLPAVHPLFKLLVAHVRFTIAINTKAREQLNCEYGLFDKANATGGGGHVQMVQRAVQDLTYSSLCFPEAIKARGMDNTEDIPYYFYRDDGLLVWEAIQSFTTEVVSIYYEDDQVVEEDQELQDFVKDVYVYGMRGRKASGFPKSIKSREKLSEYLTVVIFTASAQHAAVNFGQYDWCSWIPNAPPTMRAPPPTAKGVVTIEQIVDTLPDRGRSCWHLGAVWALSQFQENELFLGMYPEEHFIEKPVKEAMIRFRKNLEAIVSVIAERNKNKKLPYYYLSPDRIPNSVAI
Protocol: (§1) For in vitro experiments, compounds were dissolved at appropriate concentrations in ethanol or DMSO (dimethylsulfoxide) (final concentration <1.0%) and then diluted to final concentrations using the buffers indicated in the text.
(§2) The activities of these enzymes in extracts of RBL-1 cells were assayed using the method of Jakschik and Lee, Nature, 287, 51-52 (1980). RBL-1 cells were obtained from the American Type Culture Collection (#CRL 1378) and were grown at 37°C (5% CO₂ in air) in spinner culture in MEM supplemented with 10% heat inactivated fetal calf serum. Harvested cells were washed with 50 mM sodium phosphate buffer, pH 7.0, containing 1 mM EDTA and 0.1% gelatin, resuspended in fresh buffer (5 x 10⁷ cells/ml) and disrupted by nitrogen cavitation using the Parr bomb at 750 psi for 10 min. The broken cell extract was then centrifuged at 10,000 x g for 20 minutes and the supernatant centrifuged at 100,000 x g for 60 minutes. Aliquots (0.25 mls) of the supernatant were preincubated with or without drugs for 10 min, after which 10 ul CaCl₂ (50 mM) was added and the reaction was initiated with 2.5 ul of 2.5 mM arachidonic acid-1-¹⁴C (final concentration was […]; specific activity 20,000 dpm/nmole). After incubation for 3 min at 37°C, the reaction was terminated by addition of 2 volumes (0.5 ml) ice cold acetone and the sample was allowed to deproteinize on ice for 10 min prior to centrifugation at 1,000 x g for 10 min. The deproteinized supernatant was adjusted to pH 3.5 with 2N formic acid and extracted with 2 volumes of ice cold ethyl acetate. The extracted samples were dried under argon, redissolved in ethyl acetate and applied to Whatman LK5D thin layer chromatography (TLC) plates which were developed using the A-9 solvent system [organic phase of ethyl acetate: 2,2,5-trimethylpentane:acetic acid: water (110:50:20:10)] described by Hamberg and Samuelsson, J. Biol. Chem., 241, 257-263 (1966). Arachidonic acid, 5-HETE, di-HETE and PGD₂ were quantified with a Berthold LB 2832 autoscanner.
(§3) The 5-lipoxygenase and LTA₄ synthetase activities were further studied under the following conditions. An additional centrifugation of the RBL-1 supernatant was run at 100,000 x g for 60 min, to remove the particulate cyclooxygenase activity. Sample incubation was done under conditions similar to those described above, i.e., 2 mM CaCl₂ and 25 uM arachidonic acid-1-¹⁴C, however, with an incubation time of 5 min at […]. Under these conditions, only the 5-lipoxygenase pathway metabolites were detectable. The 5-HETE and di-HETEs were formed at a linear rate, and […] amounts of the arachidonic acid-1-¹⁴C substrate were utilized.

5-Lipoxygenase = target: T2, 5-Lipoxygenase (Rattus norvegicus, UniProt P12527); assay: 5-HETE production by RBL-1 high speed supernatant; format: biochemical; details: Table 8A; RBL-1 high speed supernatant
T2 construct: The activities of these enzymes in extracts of RBL-1 cells were assayed; host or cells: RBL-1 cells, disrupted by nitrogen cavitation; 10,000 x g or 100,000 x g supernatant
T2 sequence (P12527 1-673): T1 sequence (P12527 1-673)
Protocol: as §1, §2, §3

[2] = test system: Production of PGE₂ by Mouse Peritoneal Exudate Cells; assay: PGE2 production by peritoneal macrophages; format: cell-based
Protocol: as §1
Mice were injected intraperitoneally with 350 »g Corynebacterium parvum and the peritoneal exudate cell population was harvested 12-14 days later by peritoneal lavage with cold phosphate-buffered saline, and resuspended in Eagles minimal essential medium supplemented with 5% fetal calf serum. […] Test compounds were added (100 ul) to bring the final volume to 1.0 ml. Lipopolysaccharide (5 »g/ml) was then added to stimulate PGE₂ synthesis. After incubation at 37°C for 2 hours, cell-free supernatants were harvested, placed in polypropylene tubes and frozen at -20°C until assayed for their PGE₂ content using a commercial radioimmunoassay kit. IC₅₀ is the concentration that inhibits 50% of control activity.

[3] = Macrophage, read-out: IC₅₀ production of PGE₂ by inflammatory macrophages

| Structure (SMILES) | IC50 (5-LO) [µM] | IC50 (5-Lipoxygenase) [µM] | IC50 [2, 3] [µM] | % Inhibition of Ear Swelling ([1]; 50 mg/kg s.c. or i.p.) | also measured |
| --- | --- | --- | --- | --- | --- |
| COc1ccc(-c2nc3n(c2-c2ccncc2)CCC3)cc1 [Compound 40, 2-(4-methoxyphenyl)-3-(4-pyridyl)-6,7-dihydro-[5H]-pyrrolo [1,2-a]imidazole] | 10 | 16 | – | – | % Inhibition of Ear Swelling ([1]; 50 mg/kg oral dosing (p.o.)): 83 (p.o.) % |
| COc1ccc2cc([C@H](C)C(=O)O)ccc2c1 [Naproxen] | – | – | 1.8 | – | IC50 ([2]; Peritoneal macrophage, read-out: IC₅₀ (»M) production of PGE₂): 1.8 µM |
| O=C(c1ccccc1)N1C=CC(c2c(-c3ccc(F)cc3)nc3n2CCS3)C=C1 [Compound 49] | 53 | 73 | – | 15* % | – |
| CC(C)Cc1ccc(C(C)C(=O)O)cc1 (stereo not shown) [Ibuprofen, reference compound] | – | – | 0.5 | – | % Change ([1]; Table 7, 250 mg/kg, p.o.): +20^b %; Increase in Ear Thickness at 1 Hour (x 10⁻³ cm) ([1]; Table 7, 250 mg/kg, p.o.): 30.8 ± 2.0 x 10⁻³ cm; IC50 ([2]; Peritoneal macrophage, Table 10, LPS-stimulated, C. parvum-elicited peritoneal exudate cells, read-out: IC₅₀ (»M) production of PGE₂): 0.5 µM |
| CSc1ccc(-c2nc3n(c2-c2ccc(F)cc2)CCS3)cc1 [Compound 47] | – | – | – | 22*** % | – |
| CCOC(=O)N1C=CC(c2c(-c3ccc(F)cc3)nc3n2CCS3)C=C1 [Compound 48] | 7 | 9 | – | 25*** % | – |
